For assay [1], the system named is Rattus norvegicus. The experiment in a line: Antihyperglycemic activity in Rattus norvegicus Wistar albino (rat) assessed as blood glucose level at 20 mg/kg, po administered 30 min before 3 g/kg, po glucose challenge by oral glucose tolerance test (reference value: 149 +/- 6.3 mg/dl). Type of assay: functional.
The subject of assay [2] is Rattus norvegicus. The experiment in a line: Antihyperglycemic activity in Rattus norvegicus Wistar albino (rat) assessed as reduction in blood glucose level at 20 mg/kg, po administered 30 min before 3 g/kg, po glucose challenge by oral glucose tolerance test. Type of assay: functional.

Active and inactive are the calls of the source. No cut-off for these calls is given here.

`COc1ccc(Cl)cc1C(=O)NCCc1ccc(S(=O)(=O)NC(=O)NC2CCCCC2)cc1` [GLYBURIDE]: in assay [1], the Activity came out at 94.3 mg/dL.
Regarding `O=C1CCC(c2ccc(-c3ccccc3)cc2)=NN1c1ccc(S(=O)(=O)NC(=S)NCc2ccccc2)cc1`, the inhibition in vivo at 20 mg/kg in assay [2] turned out to be 24.8%. The Activity in assay [1] is 137.5 mg/dL.
Turning to `CCCNC(=S)NS(=O)(=O)c1ccc(N2N=C(c3ccc(Oc4ccccc4)cc3)CCC2=O)cc1`, the inhibition result in assay [2] was “inactive”. In assay [1], the Activity was 152 mg/dL.
Take `COc1ccc(C2=NN(c3ccc(S(=O)(=O)NC(=S)Nc4ccccc4)cc3)C(=O)CC2)cc1`: the inhibition entry in assay [2] is “inactive”. The Activity in assay [1] was 170.5 mg/dL.
As to `CCCNC(=S)NS(=O)(=O)c1ccc(N2N=C(c3ccc(C)cc3)CCC2=O)cc1`, the inhibition in vivo at 20 mg/kg in assay [2] came out at 30.9%. Besides, in assay [1], the Activity was 134.5 mg/dL.
In the case of `COc1ccc(C2=NN(c3ccc(S(=O)(=O)NC(=S)NCc4ccccc4)cc3)C(=O)CC2)cc1`, the inhibition in vivo at 20 mg/kg in assay [2] worked out at 5.6%. For the same molecule, the Activity in assay [1] was found to be 152 mg/dL.
For `O=C1CCC(c2ccc(Cl)cc2)=NN1c1ccc(S(=O)(=O)NC(=S)NCc2ccccc2)cc1`, the inhibition in vivo at 20 mg/kg in assay [2] stood at 38.8%. Moreover, the Activity in assay [1] is 128.5 mg/dL.
Take `O=C1CCC(c2ccccc2)=NN1c1ccc(S(=O)(=O)NC(=S)NCc2ccccc2)cc1`: the inhibition in vivo at 20 mg/kg in assay [2] was 26.6%. Further, in assay [1], the Activity came to 139 mg/dL.
For `O=C1CCC(c2ccc(Oc3ccccc3)cc2)=NN1c1ccc(S(=O)(=O)NC(=S)NCc2ccccc2)cc1`, in assay [2], the inhibition in vivo at 20 mg/kg worked out at 3%. Also, the Activity in assay [1] was found to be 147.5 mg/dL.
For `CCCNC(=S)NS(=O)(=O)c1ccc(N2N=C(c3ccc(Cl)cc3)CCC2=O)cc1`, in that order: 32.7% and 132.5 mg/dL.
Regarding `CCc1ccc(C2=NN(c3ccc(S(=O)(=O)NC(=S)NCc4ccccc4)cc3)C(=O)CC2)cc1`, the inhibition in vivo at 20 mg/kg in assay [2] is 3.8%. Moreover, the Activity in assay [1] was 148 mg/dL.
For `Cc1ccc(C2=NN(c3ccc(S(=O)(=O)NC(=S)NCc4ccccc4)cc3)C(=O)CC2)cc1`, in assay [2], the inhibition in vivo at 20 mg/kg was found to be 21.3%. Moreover, in assay [1], the Activity turned out to be 136 mg/dL.
Take `O=C1CCC(c2ccc(Cl)cc2)=NN1c1ccc(S(=O)(=O)NC(=S)Nc2ccccc2)cc1`: the inhibition in vivo at 20 mg/kg in assay [2] turned out to be 4.7%. For the same molecule, the Activity in assay [1] was found to be 148 mg/dL.
On to `CCCNC(=S)NS(=O)(=O)c1ccc(N2N=C(c3ccc(OC)cc3)CCC2=O)cc1`, for which the inhibition in vivo at 20 mg/kg in assay [2] worked out at 37.1%. Besides, the Activity in assay [1] was determined as 132 mg/dL.
As to `O=C1CCC(c2ccc(-c3ccccc3)cc2)=NN1c1ccc(S(=O)(=O)NC(=S)Nc2ccccc2)cc1`, the inhibition entry in assay [2] was “inactive”. For the same molecule, the Activity in assay [1] is 166 mg/dL.
Taken in the same sequence, the figures for `CCCNC(=S)NS(=O)(=O)c1ccc(N2N=C(c3ccccc3)CCC2=O)cc1` were “inactive” and 160 mg/dL.

One may read the inhibition in vivo as how much of the control response was suppressed.
